Consider 2 compounds from US20240343733A1, “COMPOUNDS FOR TARGETING DEGRADATION OF IRAK4 PROTEINS” (BIOGEN MA INC., priority 2021, published 2024).

Molecules are shown by their SMILES. Read-outs that look alike come from different tables or passages of the source.

A short description of the series: Pharmacokinetics (PK) in Male Beagle Dogs. As to conditions: dog, plasma; for Vd: read-out: Vdss. In kind it is in vivo. The procedure:
Assay 3. Pharmacokinetics (PK) in Male Beagle Dogs
The pharmacokinetic (PK) profile in plasma of two compounds of the present invention was determined in male beagle dogs following single dose IV (5 mg/kg) and PO (10 mg/kg) administration. This study was performed under non-GLP conditions, and unless otherwise stated, all analytical reagents were standard laboratory reagent grade.
Male beagle dogs were housed individually and maintained in a controlled environment. Pedigree® standard dog chow (Pedigree India Private Ltd, Telangana, India) was provided once daily. Drinking water was available ad libitum. Environmental controls for the animal room were set to maintain a temperature range of 22-25° C., relative humidity range of 40-70%, and a 12-hour light/12-hour dark cycle. Normal healthy animals weighing 10±1 kg, certified by the attending veterinarian, were selected and acclimatized for a minimum of three days prior to initiation of study. Dogs were identified by chip number inserted at the neck region. The study protocol was reviewed and approved by the Institutional Animal Ethics Committee (IAEC).
2-[4-[[4-[1-(2,6-dioxo-3-piperidyl)-3-methyl-2-oxo-benzimidazol-5-yl]-1-piperidyl]methyl]cyclohexyl]-7-isopropoxy-N-pyrazolo[1,5-a]pyrimidin-3-yl-imidazo[1,2-a]pyridine-6-carboxamide, as described in Example 48 (“Compound 48”), and 2-((1R,4S)-4-((4-(1-(2,6-dioxopiperidin-3-yl)-3-methyl-2-oxo-2,3-dihydro-1H-benzo[d]imidazol-5-yl)piperidin-1-yl)methyl)cyclohexyl)-N-(1-((1S,2R)-2-fluorocyclopropyl)-2-oxo-1,2-dihydropyridin-3-yl)-7-isopropoxyimidazo[1,2-a]pyridine-6-carboxamide, as described in Example 169 (“Compound 169”), were each formulated by dissolving the compound in polyethylene glycol (PEG400) (10%) with stirring, followed by the slow addition of 11.11% 2-Hydroxypropyl-beta-cyclodextrin (HPβCD) (90%) in water. Vehicle dose was PEG400 (10%) and 11.11% HP-β-CD (90%) in water. Formulations and vehicle were freshly prepared on the day of dosing and stored at room temperature until used.
All animals were weighed prior to drug administration. The animals were divided into intravenous (IV) group and per os (PO) group for each compound tested, with 3 animals in each group. The vehicle dosing group also included IV and PO groups, making a total of 6 groups of 3 animals each, for 18 animals total. The animals were restrained physically in sternal recumbently, on an examination table. The IV dose was administered by intravenous bolus injection into the cephalic vein and the PO dose was administered via gastric tube. The dosing volume was 1 mL/kg for IV groups and 2 mL/kg for PO groups. The dosing concentration was 5 mg/mL for both IV and PO groups respectively. The animals were fasted overnight and food was provided 4 hours post dose. […] Apart from this, animals were observed twice daily for any clinical signs, if any, and noted accordingly.
From the vehicle treatment group, whole blood was collected for peripheral blood mononuclear cells (PBMC) isolation at Pre-dose, and at 2, 8, 24, 48, 72 and 96 hour timepoints. For both tested compounds IV and PO dosing groups, whole blood was collected for plasma isolation at Pre-dose, and 0.033, 0.083, 0.167, 0.33, 1, 2, 4, 6, 8, 24, 48, 72 and 96 hour timepoints. The anti-coagulant solution used was 6% (v/v) Sodium citrate (200 mM, pH 4.79) (pre-chilled tubes). The whole blood from both IV and PO compound treatment dosing groups collected at Pre-dose, 2, 8, 24, 48, 72 and 96 hours were subjected to PBMC isolation.
For sample preparation, approximately 1-2 mL of whole blood was drawn from the peripheral vein and collected in labeled tubes containing lithium heparin, then stored on ice. The blood samples were centrifuged within 15 minutes to separate plasma at 1540 g at 4° C. for 10 minutes. The plasma was separated and transferred to pre-labeled microcentrifuge tubes and immediately frozen at −80±10° C. until bioanalysis. […]

Broadly, the AUC(0-t) is exposure summed from dosing to a finite time, without extrapolation to infinity. Lower therefore signals low exposure. By clearance is commonly meant the volume of plasma or blood freed of the substance per unit of time. The term half-life denotes the time needed for the level to fall by half in the phase considered. The low end stands for fast loss, the high end for slow loss. A word on the Cmax: it is the highest concentration seen after dosing. For orientation: bioavailability means the share of a dose that reaches the circulation, judged against a reference dose that is usually intravenous. Higher therefore signals good availability. Consider `CC(C)Oc1cc2nc([C@H]3CC[C@H](CN4CCC(c5ccc6c(c5)n(C)c(=O)n6C5CCC(=O)NC5=O)CC4)CC3)cn2cc1C(=O)Nc1cnn2cccnc12` (stereo partly shown) [Compound 48, 2-[4-[[4-[1-(2,6-dioxo-3-piperidyl)-3-methyl-2-oxo-benzimidazol-5-yl]-1-piperidyl]methyl]cyclohexyl]-7-isopropoxy-N-pyrazolo[1,5-a]pyrimidin-3-yl-imidazo[1,2-a]pyridine-6-carboxamide], for which, for the setting “5 mg/kg IV, mean”, the AUC(0-t) stood at 1720 ng·h/mL, the C0 is 4180 ng/mL, the clearance came to 46.3 mL/min/kg and the half-life was 2070 min. In addition, the Vd (5 mg/kg IV, mean) worked out at 58.5 L/kg. Under “10 mg/kg PO, mean”, this compound returned an AUC(0-t) of 242 ng·h/mL, a Cmax of 33.9 ng/mL and a bioavailability of 7.02%.
Take `CC(C)Oc1cc2nc([C@H]3CC[C@H](CN4CCC(c5ccc6c(c5)n(C)c(=O)n6C5CCC(=O)NC5=O)CC4)CC3)cn2cc1C(=O)Nc1cccn([C@H]2C[C@H]2F)c1=O` (stereo partly drawn) [Compound 169, 2-((1R,4S)-4-((4-(1-(2,6-dioxopiperidin-3-yl)-3-methyl-2-oxo-2,3-dihydro-1H-benzo[d]imidazol-5-yl)piperidin-1-yl)methyl)cyclohexyl)-N-(1-((1S,2R)-2-fluorocyclopropyl)-2-oxo-1,2-dihydropyridin-3-yl)-7-isopropoxyimidazo[1,2-a]pyridine-6-carboxamide]: where the note is “5 mg/kg IV, mean (Table 5)”, the AUC(0-t) came out at 2210 ng·h/mL, the C0 came out at 3160 ng/mL, the clearance stood at 35 mL/min/kg and the half-life was 2550 min. Further, the Vd (5 mg/kg IV, mean (Table 5)) stood at 58 L/kg. Under “10 mg/kg PO, mean (Table 6)”, this compound yielded an AUC(0-t) of 472 ng·h/mL, a Cmax of 32.2 ng/mL and a bioavailability of 10.7%.
